Laboratory results: ChEMBL document CHEMBL1158447, “Substituted benzimidazoles: A novel chemotype for small molecule hKSP inhibitors” (Bioorg Med Chem Lett, 2009)
Activity calls are given as the source filed them. The calls are words filed in the database; no cut-off is given here.

What was measured:
A2780 [1] = assay: Antiproliferative activity against human A2780 cells after 48 hrs by Almar blue assay; type: functional, cell-based; conditions: A2780, 48 h
Cytochrome P450 2C9 [2] = molecular target: T1, Cytochrome P450 2C9 (Homo sapiens, UniProt P11712); assay: Inhibition of CYP2C9 coincubated with compound; type: ADME
T1 sequence (P11712 whole entry): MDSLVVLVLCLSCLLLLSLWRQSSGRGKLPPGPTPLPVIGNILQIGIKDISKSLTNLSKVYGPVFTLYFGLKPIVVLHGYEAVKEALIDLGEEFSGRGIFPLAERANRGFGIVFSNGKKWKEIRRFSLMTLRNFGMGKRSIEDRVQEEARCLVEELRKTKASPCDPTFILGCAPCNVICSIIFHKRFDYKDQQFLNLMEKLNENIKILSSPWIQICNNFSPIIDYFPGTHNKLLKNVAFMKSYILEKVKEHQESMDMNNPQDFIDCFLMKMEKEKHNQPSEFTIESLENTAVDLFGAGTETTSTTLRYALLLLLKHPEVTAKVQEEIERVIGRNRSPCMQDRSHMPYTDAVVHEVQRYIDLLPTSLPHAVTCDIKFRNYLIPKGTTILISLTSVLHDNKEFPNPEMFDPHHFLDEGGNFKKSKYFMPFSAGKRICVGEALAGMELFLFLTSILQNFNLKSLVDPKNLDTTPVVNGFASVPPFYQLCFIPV

Rattus norvegicus = assay: AUC in rat at 10 mg/kg after 6 hrs; type: ADME, organism-based, Plasma; parameters: time < 6 hr, dose 10 mg/kg; conditions: in vivo
Cytochrome P450 2C9 [3] = molecular target: T1, Cytochrome P450 2C9; assay: Inhibition of CYP2C9 preincubated with compound; type: ADME
[4] = molecular target: T2, Kinesin heavy chain isoform 5A (Homo sapiens, UniProt Q12840); assay: Inhibition of nKHC
T2 sequence (Q12840 whole entry): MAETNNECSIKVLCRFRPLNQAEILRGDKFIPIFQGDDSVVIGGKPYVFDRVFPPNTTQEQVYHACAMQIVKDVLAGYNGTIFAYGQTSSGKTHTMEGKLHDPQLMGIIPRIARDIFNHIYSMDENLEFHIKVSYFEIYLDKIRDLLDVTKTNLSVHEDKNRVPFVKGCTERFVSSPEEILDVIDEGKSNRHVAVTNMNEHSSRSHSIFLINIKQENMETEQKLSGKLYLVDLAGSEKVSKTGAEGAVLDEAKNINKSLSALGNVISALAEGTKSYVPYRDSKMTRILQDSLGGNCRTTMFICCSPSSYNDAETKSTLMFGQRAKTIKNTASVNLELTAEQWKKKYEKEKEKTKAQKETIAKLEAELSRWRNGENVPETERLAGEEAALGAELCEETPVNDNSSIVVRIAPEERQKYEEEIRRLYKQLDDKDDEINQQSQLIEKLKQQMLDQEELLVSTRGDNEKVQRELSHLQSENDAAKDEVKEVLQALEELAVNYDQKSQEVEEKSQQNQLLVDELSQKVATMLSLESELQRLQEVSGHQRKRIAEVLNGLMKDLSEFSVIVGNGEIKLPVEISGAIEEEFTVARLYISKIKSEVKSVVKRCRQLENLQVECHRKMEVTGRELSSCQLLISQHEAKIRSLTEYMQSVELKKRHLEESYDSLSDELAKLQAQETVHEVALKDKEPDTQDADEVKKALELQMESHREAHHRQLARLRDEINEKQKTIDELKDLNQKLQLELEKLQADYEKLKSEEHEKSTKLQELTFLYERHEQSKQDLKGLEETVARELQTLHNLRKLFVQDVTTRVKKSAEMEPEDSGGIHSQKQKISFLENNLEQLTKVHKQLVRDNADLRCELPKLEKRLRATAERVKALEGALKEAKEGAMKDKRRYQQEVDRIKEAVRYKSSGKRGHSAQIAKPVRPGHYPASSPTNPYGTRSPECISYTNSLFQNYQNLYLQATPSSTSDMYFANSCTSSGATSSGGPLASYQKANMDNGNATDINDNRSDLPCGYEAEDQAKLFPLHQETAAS

Cytochrome P450 2D6 [5] = molecular target: T3, Cytochrome P450 2D6 (Homo sapiens, UniProt P10635); assay: Inhibition of CYP2D6 preincubated with compound; type: ADME
T3 sequence (P10635 whole entry): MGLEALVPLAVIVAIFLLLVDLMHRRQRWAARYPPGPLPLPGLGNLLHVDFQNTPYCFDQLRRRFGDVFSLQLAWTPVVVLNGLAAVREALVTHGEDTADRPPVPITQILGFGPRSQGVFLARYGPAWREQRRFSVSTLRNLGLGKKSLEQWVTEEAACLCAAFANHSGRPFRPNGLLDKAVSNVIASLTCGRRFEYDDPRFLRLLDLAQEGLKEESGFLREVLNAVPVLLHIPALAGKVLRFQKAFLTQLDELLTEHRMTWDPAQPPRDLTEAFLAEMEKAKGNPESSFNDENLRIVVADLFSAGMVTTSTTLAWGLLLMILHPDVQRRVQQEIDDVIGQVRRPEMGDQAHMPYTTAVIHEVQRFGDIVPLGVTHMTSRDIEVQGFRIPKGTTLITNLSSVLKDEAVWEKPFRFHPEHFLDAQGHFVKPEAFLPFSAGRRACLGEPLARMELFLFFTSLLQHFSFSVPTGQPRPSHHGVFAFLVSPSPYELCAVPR

A2780 [6] = assay: Antiproliferative activity against human A2780 cells assessed s occurrence of monostral phenotype at 25 uM after 48 hrs by Almar blue assay; type: functional, cell-based
[7] = Permeability across human Caco-2 cell membrane; type: ADME, cell-based; conditions: read-out: permeability
[8] = molecular target: T4, Kinesin-like protein KIF11 (Homo sapiens, UniProt P52732); assay: Inhibition of human kinesin spindle protein by endpoint assay
T4 sequence (P52732 whole entry): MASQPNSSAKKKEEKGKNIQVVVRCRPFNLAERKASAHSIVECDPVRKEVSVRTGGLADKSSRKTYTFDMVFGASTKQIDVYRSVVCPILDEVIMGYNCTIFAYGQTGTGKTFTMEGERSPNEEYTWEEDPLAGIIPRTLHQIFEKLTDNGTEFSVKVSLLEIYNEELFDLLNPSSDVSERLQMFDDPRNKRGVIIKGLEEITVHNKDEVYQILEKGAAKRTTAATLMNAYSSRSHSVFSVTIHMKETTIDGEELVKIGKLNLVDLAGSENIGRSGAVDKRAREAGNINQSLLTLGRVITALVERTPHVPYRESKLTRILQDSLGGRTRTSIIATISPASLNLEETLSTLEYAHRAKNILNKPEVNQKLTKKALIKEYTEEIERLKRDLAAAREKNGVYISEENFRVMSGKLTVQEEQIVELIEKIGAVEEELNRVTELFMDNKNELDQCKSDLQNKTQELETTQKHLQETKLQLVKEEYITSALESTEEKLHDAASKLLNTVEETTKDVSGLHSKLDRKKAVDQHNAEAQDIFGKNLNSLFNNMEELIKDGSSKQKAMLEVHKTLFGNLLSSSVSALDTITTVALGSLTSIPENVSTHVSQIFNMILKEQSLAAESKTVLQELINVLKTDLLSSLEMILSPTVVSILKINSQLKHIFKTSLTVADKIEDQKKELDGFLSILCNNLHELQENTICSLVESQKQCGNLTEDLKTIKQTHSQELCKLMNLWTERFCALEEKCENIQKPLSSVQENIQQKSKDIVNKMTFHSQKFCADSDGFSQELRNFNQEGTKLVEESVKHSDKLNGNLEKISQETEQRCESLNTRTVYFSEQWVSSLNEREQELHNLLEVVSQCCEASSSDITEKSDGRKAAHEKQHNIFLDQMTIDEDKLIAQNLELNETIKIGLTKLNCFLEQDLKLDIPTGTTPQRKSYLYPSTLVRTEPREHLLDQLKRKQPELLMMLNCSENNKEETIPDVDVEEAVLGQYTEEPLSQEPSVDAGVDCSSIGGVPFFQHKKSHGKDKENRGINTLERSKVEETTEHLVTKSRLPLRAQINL

Cytochrome P450 3A4 [9] = molecular target: T5, Cytochrome P450 3A4 (Homo sapiens, UniProt P08684); assay: Inhibition of CYP3A4 coincubated with compound; type: ADME
T5 sequence (P08684 whole entry): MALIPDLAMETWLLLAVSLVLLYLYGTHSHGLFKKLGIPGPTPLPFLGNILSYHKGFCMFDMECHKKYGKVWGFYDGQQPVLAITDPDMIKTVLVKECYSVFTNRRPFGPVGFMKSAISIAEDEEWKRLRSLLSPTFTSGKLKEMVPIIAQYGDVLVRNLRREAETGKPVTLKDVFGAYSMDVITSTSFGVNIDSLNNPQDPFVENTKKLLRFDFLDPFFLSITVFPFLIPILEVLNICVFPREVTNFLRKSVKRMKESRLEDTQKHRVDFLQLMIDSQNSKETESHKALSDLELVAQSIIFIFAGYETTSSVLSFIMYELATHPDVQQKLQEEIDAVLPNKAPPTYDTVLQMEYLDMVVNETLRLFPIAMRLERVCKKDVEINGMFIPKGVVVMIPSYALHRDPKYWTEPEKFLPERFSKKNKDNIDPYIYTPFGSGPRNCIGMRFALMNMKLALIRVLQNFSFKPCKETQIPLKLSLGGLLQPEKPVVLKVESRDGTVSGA

Cytochrome P450 2D6 [10] = molecular target: T3, Cytochrome P450 2D6; assay: Inhibition of CYP2D6 coincubated with compound; type: ADME
[11] = molecular target: T6, Kinesin-like protein KIF3B (Homo sapiens, UniProt O15066); assay: Inhibition of Kif3B
T6 sequence (O15066 whole entry): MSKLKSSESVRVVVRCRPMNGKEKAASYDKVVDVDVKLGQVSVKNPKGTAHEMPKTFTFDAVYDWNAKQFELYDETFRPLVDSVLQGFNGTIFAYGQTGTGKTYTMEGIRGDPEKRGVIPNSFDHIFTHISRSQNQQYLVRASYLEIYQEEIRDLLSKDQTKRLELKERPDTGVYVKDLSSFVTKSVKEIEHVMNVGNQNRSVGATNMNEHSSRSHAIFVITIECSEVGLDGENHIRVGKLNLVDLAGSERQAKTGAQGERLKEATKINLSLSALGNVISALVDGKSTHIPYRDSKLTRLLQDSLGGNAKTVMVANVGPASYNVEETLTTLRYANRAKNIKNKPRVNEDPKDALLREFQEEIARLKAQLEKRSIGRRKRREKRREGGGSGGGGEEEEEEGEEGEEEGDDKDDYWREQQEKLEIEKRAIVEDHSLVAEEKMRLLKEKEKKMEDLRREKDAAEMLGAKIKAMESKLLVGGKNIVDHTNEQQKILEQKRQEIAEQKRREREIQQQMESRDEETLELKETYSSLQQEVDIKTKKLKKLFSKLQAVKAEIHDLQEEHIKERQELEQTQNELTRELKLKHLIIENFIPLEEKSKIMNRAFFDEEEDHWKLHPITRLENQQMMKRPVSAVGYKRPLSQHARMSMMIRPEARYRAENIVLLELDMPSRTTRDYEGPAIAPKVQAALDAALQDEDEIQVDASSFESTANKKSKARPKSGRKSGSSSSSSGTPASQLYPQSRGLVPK

Cytochrome P450 3A4 [12] = molecular target: T5, Cytochrome P450 3A4; assay: Inhibition of CYP3A4 preincubated with compound; type: ADME
[13] = molecular target: Kinesin-like protein KIF11 (Homo sapiens) (UniProt P52732); assay: Selectivity for human KSP over HSET

Row | Structure (SMILES) | IC50 (A2780 [1]) [µM] | IC50 (Cytochrome P450 2C9 [2]) [µM] | AUC (Rattus norvegicus) [µM·h] | IC50 (Cytochrome P450 2C9 [3]) [µM] | IC50 [4] [µM] | IC50 (Cytochrome P450 2D6 [5]) [µM] | Activity (A2780 [6]) | Papp [7] [×10⁻⁶ cm/s] | IC50 [8] [µM] | IC50 (Cytochrome P450 3A4 [9]) [µM] | IC50 (Cytochrome P450 2D6 [10]) [µM] | IC50 [11] [µM] | IC50 (Cytochrome P450 3A4 [12]) [µM] | fold change (FC) [13]
1 | COc1ccc(Nc2nc3cc(C(N)=O)ccc3n2Cc2ccccc2C(F)(F)F)cc1 | 19 | 8 | 0.6 | > 4 | > 50 | > 15 | Active | 67 | 2.5 | > 30 | > 30 | > 50 | > 15 | 
2 | CSc1ccc(Nc2nc3cc(C(N)=O)ccc3n2Cc2ccccc2C(F)(F)F)cc1 | 16 | 14 | 0.15 | > 7 | > 50 | > 15 | Active | 53 | 0.52 | > 30 | > 30 | > 50 | < 15 | 8
3 | CS(=O)(=O)c1ccc(Nc2nc3cc(C(N)=O)ccc3n2Cc2ccccc2C(F)(F)F)cc1 |  | 15 | 0 | > 8 | > 50 | > 15 |  | 1.8 | 4.8 | > 30 | > 30 | > 50 | > 20 | 
